According to patent US10307404B1, “Ocular formulations for drug-delivery to the posterior segment of the eye” (priority 2013, dated 2019):
Where two headings read alike, the source gives them in different places.

Assays:
[1] = design: species or system Dutch-Belted rabbits and beagle dogs; details: Dutch-belted, beagle, rabbit, dog, in vivo
Excerpt: Animals that received topical ocular administration of the tromethamine-based suspension were able to tolerate up to higher level of the active agent concentration in the formulation, as compared to equimolar formulations of the sodium phosphate-based Gel Drop.
Overall, the combination of decreased corneal exposure and corresponding improved ocular tolerability, while simultaneously maintaining or promoting drug delivery to the posterior segment target tissues, along with improved physicochemical stability, will provide greater benefit to patients compared to the ophthalmic Gel Drop formulation.
Retinal function was normal in all test article and vehicle treated groups during full-field electroretinograms performed in rabbits.

[2] = 1- to 5-day PK, topical ocular Compound-I formulations of Table 8A, 30 μL bilateral dose; assay type: in vivo, Dutch Belted rabbits
Method: On day 1, Groups 1, 2, 4-6, 8, 10, 11, 13, 15, and 17 received one dose (q.d.) for either one (1) or four (4) days.
Peripheral retina and peripheral choroid samples were assayed only for Groups 1-8, 12, 14, and 16 per study protocol.

[3] = 5-day PK, topical ocular Compound-I in hydroxypropyl-β-cyclodextrin solutions, 30 μL bilateral dose; assay type: in vivo, Dutch-Belted rabbits; details: for Average Concentration, Central Retina: LLOQ = 0.0218 μM
Method: All doses were administered with ±1 hour of the scheduled dose time, except on day 1 for Groups 1, 4, and 10. The first dose on day 1 was administered at 12:00 PM, and the second dose (for Groups 1 and 10) was administered approximately 4 hours after. This was due to delayed arrival of formulations. All other dosing for these groups was as scheduled. On day 1, Groups 4-8, and 11-12 received one dose (q.d.) for four (4) days. On days 1 through 4, Groups 1-3, and 9-10 received b.i.d. dosing approximately 8 hours apart for four (4) days.
Ocular sampling occurred one hour following the first daily dose on day 5 for all groups, except Groups 5b and 6b, where ocular sampling occurred 24 hours after the first daily dose on day 4.
Blood samples for plasma collection were obtained just prior to scheduled euthanasia for all animals. […] Cornea, central retina, and central choroid samples from groups 1-12 were assayed. Aqueous humor, peripheral retina, and peripheral choroid samples were not assayed.

[4] = 30-day topical ocular tolerability of cyclodextrin-based solutions; assay type: in vivo
[5] = Group 2 q.d., 1 hr post day 5 morning dose
[6] = Group 2 q.d., 8 hr post day 5 morning dose
[7] = Group 2 q.d., 24 hr post day 5 morning dose
[8] = Group 3 b.i.d., 1 hr post day 5 morning dose
[9] = Group 3 b.i.d., 24 hr post day 5 morning dose
[10] = Group 4 q.d., 1 hr post day 5 morning dose
[11] = Group 5 q.d., 24 hr post day 1 dose
[12] = Group 6 q.d., 1 hr post day 5 morning dose
[13] = Group 6 q.d., 8 hr post day 5 morning dose
[14] = Group 6 q.d., 24 hr post day 5 morning dose
[15] = Group 7 b.i.d., 1 hr post day 5 morning dose
[16] = Group 11 q.d., 24 hr post day 5 morning dose, n = 1

Cl.NC(=O)c1c(OCc2c(F)cc(Br)cc2F)nsc1NC(=O)NCCCCN1CCCC1 [Compound-I, 3-[(4-bromo-2,6-difluorophenyl)methoxy]-5-[[[[4-(1-pyrrolidinyl)butyl]amino]carbonyl]amino]-4-isothiazolecarboxamide hydrochloride]
cornea concentration above which ocular side effects were more consistently observed [1]: exceeded 100 μM | concentration at 24 h ([2]; Dutch Belted, rabbit, cornea, topical, 30 μL bilateral, Group 2 q.d., 24 hr post day 5 morning dose): 29.7 µM | Average Concentration, Peripheral Choroid ([2]; Group 1 q.d., 0.5 hr post day 1 dose, LLOQ = 0.0349 μM): <LLOQ | Average Concentration, Central Retina ([2]; Group 1 q.d., 1 hr post day 1 dose, LLOQ = 0.0181 μM): <LLOQ | Average Concentration, Peripheral Choroid ([2]; Group 1 q.d., 1 hr post day 1 dose, n = 1): *0.0856 μM | Average Concentration, Central Retina ([2]; Group 1 q.d., 24 hr post day 1 dose, LLOQ = 0.0181 μM): <LLOQ | concentration at 24 h ([2]; Group 1 q.d., 24 hr post day 1 dose, read-out: Average Concentration, Cornea): 6.94 µM | Average Concentration, Aqueous Humor [2, 5]: 0.00996 µM | Average Concentration, Peripheral Choroid [2, 5]: 0.737 µM | Average Concentration, Central Choroid ([2]; Group 2 q.d., 1 hr post day 5 morning dose, n = 1): *0.207 μM | concentration at 24 h ([2]; Group 2 q.d., 1 hr post day 5 morning dose, read-out: Average Concentration, Cornea): 112 µM | Average Concentration, Aqueous Humor [2, 6]: 0.0165 µM | Average Concentration, Peripheral Choroid [2, 6]: 0.687 µM | Average Concentration, Central Choroid ([2]; Group 2 q.d., 8 hr post day 5 morning dose, n = 1): *0.237 μM | concentration at 24 h ([2]; Group 2 q.d., 8 hr post day 5 morning dose, read-out: Average Concentration, Cornea): 32.7 µM | Average Concentration, Aqueous Humor [2, 7]: 0.00336 µM | Average Concentration, Peripheral Choroid [2, 7]: 1.14 µM | Average Concentration, Peripheral Retina [2, 7]: 0.380 µM | Average Concentration, Central Retina ([2]; Group 2 q.d., 24 hr post day 5 morning dose, LLOQ = 0.0181 μM): <LLOQ | Average Concentration, Central Choroid ([2]; Group 2 q.d., 24 hr post day 5 morning dose, n = 1): *0.205 μM | Average Concentration, Aqueous Humor [2, 8]: 0.0142 µM | Average Concentration, Central Choroid [2, 8]: 0.255 µM | concentration at 24 h ([2]; Group 3 b.i.d., 1 hr post day 5 morning dose, read-out: Average Concentration, Cornea): 151 µM | Average Concentration, Aqueous Humor [2, 9]: 0.00774 µM | Average Concentration, Peripheral Retina [2, 9]: 0.0597 µM | concentration at 24 h ([2]; Group 3 b.i.d., 24 hr post day 5 morning dose, read-out: Average Concentration, Cornea): 82.1 µM | Average Concentration, Aqueous Humor [2, 10]: 0.00996 µM | Average Concentration, Central Retina [2, 10]: 0.0431 µM | Average Concentration, Peripheral Choroid [2, 10]: 0.629 µM | Average Concentration, Peripheral Retina [2, 10]: 0.0883 µM | concentration at 24 h ([2]; Group 4 q.d., 1 hr post day 5 morning dose, read-out: Average Concentration, Cornea): 78.7 µM | Average Concentration, Aqueous Humor ([2]; Group 5 q.d., 0.5 hr post day 1 dose, LLOQ = 0.000903 μM): <LLOQ | Average Concentration, Central Retina ([2]; Group 5 q.d., 0.5 hr post day 1 dose, LLOQ = 0.0181 μM): <LLOQ | Average Concentration, Peripheral Choroid ([2]; Group 5 q.d., 0.5 hr post day 1 dose, LLOQ = 0.0349 μM): <LLOQ | concentration at 24 h ([2]; Group 5 q.d., 0.5 hr post day 1 dose, read-out: Average Concentration, Cornea): 21.0 µM | Average Concentration, Peripheral Retina ([2]; Group 5 q.d., 1 hr post day 1 dose): 0.0253 µM | Average Concentration, Peripheral Retina ([2]; Group 5 q.d., 2 hr post day 1 dose): 0.0253 µM | concentration at 24 h ([2]; Group 5 q.d., 8 hr post day 1 dose, read-out: Average Concentration, Cornea): 7.74 µM | Average Concentration, Aqueous Humor [2, 11]: 0.00228 µM | Average Concentration, Peripheral Choroid [2, 11]: 0.116 µM | Average Concentration, Central Retina ([2]; Group 5 q.d., 24 hr post day 1 dose, LLOQ = 0.0181 μM): <LLOQ | Average Concentration, Peripheral Retina ([2]; Group 5 q.d., 24 hr post day 1 dose, n = 1): *0.0103 μM | concentration at 24 h ([2]; Group 5 q.d., 24 hr post day 1 dose, read-out: Average Concentration, Cornea): 2.43 µM | Average Concentration, Aqueous Humor [2, 12]: 0.00323 µM | Average Concentration, Central Choroid [2, 12]: 0.319 µM | Average Concentration, Central Retina [2, 12]: 0.0463 µM | Average Concentration, Peripheral Choroid [2, 12]: 0.311 µM | Average Concentration, Peripheral Retina [2, 12]: 0.0634 µM | concentration at 24 h ([2]; Group 6 q.d., 1 hr post day 5 morning dose, read-out: Average Concentration, Cornea): 21.8 µM | Average Concentration, Aqueous Humor [2, 13]: 0.00742 µM | Average Concentration, Central Retina [2, 13]: 0.0537 µM | Average Concentration, Peripheral Choroid [2, 13]: 0.257 µM | concentration at 24 h ([2]; Group 6 q.d., 8 hr post day 5 morning dose, read-out: Average Concentration, Cornea): 9.10 µM | Average Concentration, Aqueous Humor [2, 14]: 0.00122 µM | Average Concentration, Peripheral Choroid [2, 14]: 0.343 µM | Average Concentration, Peripheral Retina [2, 14]: 0.0533 µM | concentration at 24 h ([2]; Group 6 q.d., 24 hr post day 5 morning dose, read-out: Average Concentration, Cornea): 2.33 µM | Average Concentration, Aqueous Humor [2, 15]: 0.00648 µM | Average Concentration, Central Choroid [2, 15]: 0.514 µM | Average Concentration, Central Retina [2, 15]: 0.0469 µM | Average Concentration, Peripheral Choroid [2, 15]: 0.744 µM | Average Concentration, Peripheral Retina [2, 15]: 0.0819 µM | Average Concentration, Aqueous Humor [2, 16]: *0.00205 μM | Average Concentration, Central Choroid [2, 16]: *0.179 μM | Average Concentration, Central Retina [2, 16]: *0.0185 μM | Average Concentration, Central Choroid ([3]; Group 5a q.d., 1 hr after first daily dose on day 5, n = 1): *0.199 μM | Average Concentration, Central Retina ([3]; Group 5b q.d., 24 hr after first daily dose on day 4): <LLOQ | Average Concentration, Central Retina ([3]; Group 6b q.d., 24 hr after first daily dose on day 4): <LLOQ | Average Concentration, Central Choroid ([3]; Group 6b q.d., 24 hr after first daily dose on day 4, n = 1): *0.218 μM | Average Concentration, Central Choroid ([3]; Group 7 q.d., 1 hr after first daily dose on day 5, LLOQ = 0.174 μM): <LLOQ | Average Concentration, Central Choroid ([3]; Group 8 q.d., 1 hr after first daily dose on day 5, n = 1): *0.210 μM | Average Concentration, Central Choroid ([3]; Group 9 b.i.d., 1 hr after first daily dose on day 5, n = 1): *0.287 μM | findings attributed to test-article or vehicle ([4]; 0.6% cyclodextrin-based solution, 30 days of topical ocular dosing): no untoward findings | ocular toxicity, clinical ophthalmic or microscopic examinations ([4]; rabbit, in vivo): No overt ocular toxicity | tolerability ([4]; rabbit, in vivo): well tolerated
